# Patent US11351173B2, “Substituted pyrrolo[1,2-a]pyrimidines and their use in the treatment of medical disorders” (Bial—R&D Investments, S.A., priority 2014, dated 2022)
# What was measured:
# [1] = physchem; conditions: water, Compound Solubility in Water
# [2] = target: T1, glucocerebrosidase (Gcase) (Homo sapiens, UniProt P04062); experiment: Glucocerebrosidase (Gcase) activation assay, 4-methylumbelliferyl-beta-D-glucopyranoside substrate, fluorescence readout; format: biochemical; conditions: for activation at 0.1 µM / Percent Gcase Activation, 0.1 μM Test Compound: test compound at 0.1 μM; for activation at 0.1 µM: read-out: Percent Gcase Activation, 0.1 μM Test Compound; for activation at 1 µM / Percent Gcase Activation, 1 μM Test Compound: test compound at 1.0 μM; for activation at 1 µM: read-out: Percent Gcase Activation, 1 μM Test Compound
# T1 construct: micellar solution containing 10 nM GCase and 100 nM saposin C
# T1 sequence (P04062 40-536): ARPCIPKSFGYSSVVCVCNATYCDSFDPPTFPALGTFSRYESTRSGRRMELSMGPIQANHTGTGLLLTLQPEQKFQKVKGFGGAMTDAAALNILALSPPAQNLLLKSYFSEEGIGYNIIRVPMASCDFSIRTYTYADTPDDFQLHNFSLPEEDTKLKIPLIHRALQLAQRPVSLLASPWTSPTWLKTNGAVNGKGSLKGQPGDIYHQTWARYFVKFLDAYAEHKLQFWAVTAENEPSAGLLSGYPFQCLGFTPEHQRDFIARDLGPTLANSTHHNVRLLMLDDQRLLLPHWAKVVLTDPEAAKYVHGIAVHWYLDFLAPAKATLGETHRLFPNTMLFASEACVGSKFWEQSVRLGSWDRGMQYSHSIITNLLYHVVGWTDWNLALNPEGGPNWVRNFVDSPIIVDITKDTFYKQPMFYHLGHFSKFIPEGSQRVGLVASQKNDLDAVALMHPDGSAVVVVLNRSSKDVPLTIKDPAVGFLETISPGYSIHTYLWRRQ
# Method in brief: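 10 nM GCase with 100 nM saposin C pre-incubated 30 min with compound in pH 4.7 phosphate/citrate PS/triton micelles, then mixed 1:1 with 2 mM 4-methylumbelliferyl-β-glucoside micellar substrate (stock level). Run 15 min at room temperature, stopped at pH 12.5; fluorescence 365/440 nm. Screened at 1.0 and 0.1 μM; 8-point curves from 5 μM.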
# [3] = Compound solubility in water; conditions: for solubility: Compound Solubility in Water
activation at 0.1 µM [2],activation at 1 µM [2],solubility ([3]; water),SMILES,further results
10 to 20%,> 60%,21 µg/mL,CCCCO[C@H]1CC[C@H](NC(=O)c2ccn3c(COC)cc(C)nc23)CC1 [III-33],
10 to 20%,> 60%,,CO[C@H]1CC[C@H](C(C)(C)NC(=O)c2ccn3c(C)cc(C)nc23)CC1 [III-236],"solubility ([3]; water, in water): 9.9 µg/mL"
> 20%,> 60%,,Cc1cc(C)n2ccc(C(=O)NC3CCC(c4cccs4)CC3)c2n1 (stereo not shown) [III-187],Compound Solubility in Water ([3]; water): 0.4 µg/mL
> 20%,> 60%,0.04 µg/mL,C#Cc1ccc(NC(=O)c2ccn3c(C)cc(C)nc23)c(OCCOC)c1 [III-183],
,,,Cc1cc(C)n2ccc(C(=O)NC3CCC4(CCCO4)C3)c2n1 (stereo not shown) [III-147],"Percent Gcase Activation, 0.1 μM Test Compound [2]: * (less than 10% Gcase activation); Percent Gcase Activation, 1 μM Test Compound [2]: + (less than 30% Gcase activation); Compound Solubility in Water ([3]; water): 20.4 µg/mL"
> 20%,> 60%,0.2 µg/mL,Cc1cc(C)n2ccc(C(=O)Nc3ccc4c(c3)OCO4)c2n1 [III-16],
> 20%,> 60%,1.7 µg/mL,Cc1cc(C)n2ccc(C(=O)NC3CCOc4c(F)ccc(F)c43)c2n1 (stereo not shown) [III-171],
> 20%,> 60%,0.4 µg/mL,CCCCCO[C@H]1CC[C@H](NC(=O)c2ccn3c(C(F)F)cc(C(F)F)nc23)CC1 [III-25],
> 20%,> 60%,0.1 µg/mL,COc1cc(-c2cocn2)ccc1NC(=O)c1ccn2c(C)cc(C)nc12 [III-109],
> 20%,> 60%,1.7 µg/mL,COCc1cc(C)nc2c(C(=O)NC(C)(C)c3ccc(-c4cocn4)cc3)ccn12 [III-49],
> 20%,> 60%,0.7 µg/mL,Cc1cc(C(F)F)n2ccc(C(=O)NC3CCCc4ccccc43)c2n1 (stereo not shown) [III-28],
> 20%,> 60%,0.04 µg/mL,CO[C@H]1CC[C@@H](C(C)(C)NC(=O)c2ccn3c(C)cc(Cl)nc23)CC1 [III-76],
10 to 20%,> 60%,3.5 µg/mL,COCc1cc(C)n2ccc(C(=O)NC(C)(C)c3ccc(-c4cocn4)cc3)c2n1 [III-48],
< 10%,< 30%,,Cc1cc(C)n2ccc(C(=O)NC3CCC(c4ncco4)CC3)c2n1 (stereo not shown) [III-245],"solubility ([3]; water, in water): 27.7 µg/mL"
,,,Cc1cc(C)n2ccc(C(=O)Nc3ccc(-c4cccs4)nc3)c2n1 [III-275],"Percent Gcase Activation, 0.1 μM Test Compound [2]: *** (greater than 20% Gcase activation); Percent Gcase Activation, 1 μM Test Compound [2]: +++ (Gcase activation greater than 60%); solubility ([3]; water, in water): 0.01 µg/mL"
< 10%,30 to 60%,2.4 µg/mL,[2H]C1(NC(=O)c2ccn3c(C(C)C)cc(COC)nc23)CCOc2cc(F)c(F)cc21 (stereo not shown) [III-60],
< 10%,< 30%,,Cc1ccn2ccc(C(=O)Nc3ccc(-c4ncco4)cc3)c2n1 [III-265],"solubility ([3]; water, in water): 2 µg/mL"
> 20%,> 60%,1.5 µg/mL,Cc1cc(C)n2ccc(C(=O)NC3CCOc4ccc(F)c(F)c43)c2n1 (stereo not shown) [III-172],
10 to 20%,> 60%,,Cc1cc(C(F)(F)F)nc2c(C(=O)NC3CCC4(CCCCO4)C3)ccn12 (stereo not shown) [III-248],Compound Solubility in Water ([3]; in water): 28.2 µg/mL
10 to 20%,> 60%,,Cc1cc(C)n2ccc(C(=O)NC3COCc4ccccc43)c2n1 (stereo not shown) [III-210],"solubility ([3]; water, in water): 3.3 µg/mL"

activation at 0.1 µM [2],activation at 1 µM [2],solubility ([3]; water),SMILES,further results
< 10%,< 30%,1.8 µg/mL,Cc1cc(O)n2ccc(C(=O)Nc3ccc(-c4cocn4)cc3)c2n1 [III-55],
10 to 20%,> 60%,25.2 µg/mL,COCCOCc1cc(C)n2ccc(C(=O)N[C@H]3CCCc4ccccc43)c2n1 [III-43],
< 10%,> 60%,10.1 µg/mL,C#Cc1ccc(NC(=O)c2ccn3c(C)cc(C)nc23)cn1 [III-5],
,,,Cc1cc(C(F)(F)F)nc2c(C(=O)NC3CCC4(CCCCO4)C3)ccn12 (stereo not shown) [III-249],"Percent Gcase Activation, 1 μM Test Compound [2]: +++ (Gcase activation greater than 60%); Compound Solubility in Water ([3]; in water): 12.6 µg/mL"
> 20%,> 60%,0.5 µg/mL,CCCCCOC1CCC(NC(=O)c2ccn3c(C)cc(C)nc23)CC1 (stereo not shown) [III-22],
< 10%,> 60%,19.4 µg/mL,Cc1cc(C)n2ccc(C(=O)NCC3CCC4(CCCCO4)CC3)c2n1 (stereo not shown) [III-123],
10 to 20%,> 60%,18 µg/mL,CCCCO[C@H]1CC[C@H](NC(=O)c2ccn3c(C(C)C)cc(COC)nc23)CC1 [III-37],
> 20%,30 to 60%,0.1 µg/mL,COc1cc(NC(=O)c2ccn3c(C)cc(C)nc23)ccc1-c1cnco1 [III-87],
< 10%,< 30%,,CCC(F)(F)CN1CCC(NC(=O)c2ccn3c(C)cc(C)nc23)CC1 [III-204],"solubility ([3]; water, in water): 21.1 µg/mL"
< 10%,< 30%,,C#Cc1ccc(NC(=O)c2ccn3c(C)cc(C)nc23)c(CO)c1 [III-213],"solubility ([3]; water, in water): 0.7 µg/mL"
,,,Cc1cc(C)n2ccc(C(=O)Nc3ccc(-c4ccco4)cc3)c2n1 [III-9],"Percent Gcase Activation, 0.1 μM Test Compound [2]: *** (greater than 20% Gcase activation); Percent Gcase Activation, 1 μM Test Compound [2]: +++ (Gcase activation greater than 60%); Compound Solubility in Water ([3]; water): <0.1 µg/mL"
10 to 20%,> 60%,11.1 µg/mL,CC[C@H](C)O[C@H]1CC[C@H](NC(=O)c2ccn3c(C)cc(C)nc23)CC1 [III-125],
10 to 20%,> 60%,,CCCCCO[C@@H]1CC[C@H](NC(=O)c2ccn3c(C)cc(C)nc23)C1 [III-145],Compound Solubility in Water ([3]; water): 2.3 µg/mL
> 20%,> 60%,,COc1ccccc1C(C)(C)NC(=O)c1ccn2c(C)cc(C)nc12 [III-233],"solubility ([3]; water, in water): 2.1 µg/mL"
< 10%,< 30%,,CCC(F)(F)CN1CCC(NC(=O)c2ccn3c(C)cc(C)nc23)C1 (stereo not shown) [III-205],"solubility ([3]; water, in water): 21.3 µg/mL"
10 to 20%,> 60%,0.4 µg/mL,CCCCO[C@H]1CC[C@H](NC(=O)c2ccn3c(C)cc(NC)nc23)CC1 [III-66],
> 20%,> 60%,1 µg/mL,CCCCO[C@H]1CC[C@H](NC(=O)c2ccn3c(C(F)F)cc(C)nc23)CC1 [III-68],
,,,Cc1cc(C)n2ccc(C(=O)NC3CCCC4(CCCCO4)C3)c2n1 (stereo not shown) [III-81],"Percent Gcase Activation, 0.1 μM Test Compound [2]: * (less than 10% Gcase activation); Percent Gcase Activation, 1 μM Test Compound [2]: + (less than 30% Gcase activation); Compound Solubility in Water ([3]; water): 9.8 µg/mL"
,,,Cc1cc(C)n2ccc(C(=O)Nc3ccc(-c4ccncc4)cc3)c2n1 [III-277],"Percent Gcase Activation, 0.1 μM Test Compound [2]: * (less than 10% Gcase activation); solubility ([3]; water, in water): 0.01 µg/mL"
10 to 20%,> 60%,,COCc1cc(C2CC2)nc2c(C(=O)NC3(C)CCOc4cc(F)c(F)cc43)ccn12 (stereo not shown) [III-266],"solubility ([3]; water, in water): 0.9 µg/mL"

SMILES,activation at 0.1 µM [2],activation at 1 µM [2],solubility ([3]; water),further results
CCCCCC(=O)N1C2CCC1CC(NC(=O)c1ccn3c(C)cc(C)nc13)C2 (stereo not shown) [III-127],< 10%,< 30%,,solubility [1]: 6.5 µg/mL
Cc1cc(C)n2ccc(C(=O)NC3CC4CCC(C3)N4CC(F)(F)F)c2n1 (stereo not shown) [III-128],< 10%,< 30%,,solubility [1]: 18.9 µg/mL
